# Earlier results as cited in US20190015503A1, “METHODS FOR THE PROGNOSIS AND TREATMENT OF ENDOMETRIAL CARCINOMA” (INSERM (INSTITUT NATIONAL DE LA SANTÉ DE LA RECHERCHE …, priority 2015, published 2019).
# Tested on: prostate cancer cells
# Conditions: dose- and time-dependent
compound,measurement,value
COc1cccc(OC)c1-c1cc(C(=O)NC2(C(=O)O)C3CC4CC(C3)CC2C4)nn1-c1ccnc2cc(Cl)ccc12 (stereo not shown) [SR48692],radio-sensitization (increasing apoptotic cell death and decreasing clonogenic survival),radio-sensitized prostate cancer cells in a dose- and time-dependent manner
